# Results reported in patent publication US4652646A, “Thiazolo[3,2-a][1,2,3]triazolo[4,5-d]pyrimidine and [1,3,4]thiadiazolo[3,2-a][1,2,3]triazolo[4,5-d]pyrimidine derivatives” (Daiichi Seiyaku Co., Ltd., priority 1984, dated 1987).
# Legend:
# [1] = background art; cited from earlier work
# [2] = test system: release of histamine induced by passive peritoneal anaphylaxis (PPA) reaction; experiment: Passive Peritoneal Anaphylaxis (PPA) test: inhibition of histamine release; type: in vivo, Sprague-Dawley male rats; conditions: ip, 5 min; rat PPA; 1 mg/kg intraperitoneally 30 seconds before egg albumin
# Description: (§1) 1 mg of egg albumin dissolved in 0.2 ml of saline was intramuscularly administered to each of Sprague-Dawley male rats weighing 300 to 350 g (Charles River Japan Inc.), and then 1 ml of a suspension of sterilized Bordetella pertussis (2×10^10 cells) in saline was administered intraperitoneally to the rats. After 14 days, blood was drawn from the rats to obtain an antiserum.
# (§2) The test was conducted according to the method of Orange et al [Orange, R. P., Stechschulte, D. J., Austen, K. F., J. Immunol., 105, pp1087-1095 (1970)]. Sprague-Dawley male rats weighing 250 to 400 g (5 rats per group) were passively sensitized by administering 5 ml of 5-fold dilution antiserum (prepared by diluting the above antiserum with saline). 2 hours later, 5 ml of an egg albumin solution prepared by dissolving 2 mg of egg albumin in phosphate buffered saline containing 0.9 mM of calcium chloride was administered intraperitoneally to the rats. After 5 minutes, the rats were sacrificed by decapitation, and peritoneal fluid was pooled and centrifuged at 300×G at 4° C. for 10 minutes. Then, amounts of SRS-A and histamine in the supernatant were determined.
# The quantitative determination of histamine was carried out according to the method of Shore et al [Shore, P. A., Bunkhalter, A. H., Cohn, V. H., J. Pharmacol. Exp. Ther., 127, pp182-186 (1959)], and the total released amount of histamine per rat (μg/rat) was calculated.
# (§3) In this test, the test compound of this invention was administered as follows. 2 mg of a test compound was dissolved in 10 ml of phosphate buffered saline containing 0.9 mM of calcium chloride, an equimolar amount of sodium hydroxide to test compound, 2% of dimethyl sulfoxide and 2% of ethanol, and the solution was administered intraperitoneally to the rats at a dose of 1 mg/kg 30 seconds before the injection of egg albumin for inducing PPA. For a control group, the same solution without test compound and sodium hydroxide was administered.
# (§4) The inhibitory activity on release of histamine and SRS-A by the PPA reaction in the treated group was calculated by the following formula: [formula] wherein: a represents a mean value of released amount in the control group.
# (§5) b represents a mean value of released amount in the treated group.
# (§6) c represents a mean value of spontaneously released amount.
# [3] = test system: passive cutaneous anaphylaxis (PCA) reaction; experiment: Passive cutaneous anaphylaxis (PCA) test; type: in vivo, Sprague-Dowley male rats; conditions: 0.5 h; rat PCA; DSCG administered at 100 mg/kg of body weight
# [4] = test system: release of SRS-A induced by passive peritoneal anaphylaxis (PPA) reaction; experiment: Passive Peritoneal Anaphylaxis (PPA) test: inhibition of SRS-A release; type: in vivo, Sprague-Dawley male rats; conditions: rat PPA
# Description: as §1, §2
# The quantitative determination of SRS-A was carried out according to the method of Stechschulte et al [Stechschulte, D. J., Auste, K. F., Bloch, K. J., J. Exp. Med., 125, pp127-147 (1967)] using a guinea pig ileum specimen in the presence of mepyramine and atropine. The amount of SRS-A was expressed in terms of unit, i.e., one unit of SRS-A activity was defined as the concentration required to produce a contraction of guinea pig ileum equal in amplitude to that produced by 5 ng of histamine, and the total released amount of SRS-A per rat (unit/rat) was calculated.
# as §3, §4, §5, §6
# [5] = test system: passive cutaneous anaphylaxis (PCA) reaction; experiment: Passive cutaneous anaphylaxis (PCA) test; type: in vivo, Sprague-Dowley male rats; conditions: rat PCA, oral administration
# Description: as §1
# In this test, the antiserum described in Test Example 1 was used after it was diluted with saline so as to provide a blue spot having a diameter of about 10 mm in the following control group.
# Sprague-Dowley male rats weighing about 180 g (5 rats per group) were sensitized by injecting 0.05 ml of the diluted antiserum into the shaved dorsal skin. 48 hours later, the animals were challenged with 1 ml of saline containing 5 mg of egg albumin and 5 mg of Evans blue dye administered via a tail vein. 30 minutes later, the rats were sacrificed by decapitation. The dorsal skin was removed, and the long and short axis of the each wheal was measured.
# In this test, the test compound was administered as follows. 20 mg of a test compound was suspended in a 0.5% CMC aqueous solution, and the suspension was administered to each of the rats in an amount of 20 mg/kg 30 minutes before the antigen challenge. For a control group, only a 0.5% CMC solution was administered.
# The inhibitory activity on the PCA reaction in the treated group was calculated by the following formula: [formula] wherein: a represents a mean value of blue spot area in the control group.
# b represents a mean value of blue spot area in the treated group.
structure (smiles),measurement,setting,value
"O=C(O)c1cc(=O)c2c(OCC(O)COc3cccc4oc(C(=O)O)cc(=O)c34)cccc2o1 [DSCG, Sodium Cromoglycate, reference compound]",effectiveness in oral administration (in words),[1],not effective in oral administration
same,inhibition in vivo at 1 mg/kg,[2],93%
same,inhibition in vivo at 100 mg/kg,[3],8%
same,inhibition in vivo at 1 mg/kg,"[4]; ip, 5 min, 1 mg/kg intraperitoneally 30 seconds before egg albumin",0%
same,inhibition of release of SRS-A in the PPA reaction (in words),[4],did not inhibit the release of SRS-A in the PPA reaction
same,inhibition of the PCA reaction in oral administration (in words),[5],did not inhibit the PCA reaction in oral administration
